Where two headings read alike, the source gives them in different places.
What was measured:
[1] = Acute toxicity (oral, mice, 7 days observation); format: in vivo; conditions: mouse, in vivo
How it was run: (§1)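 Overnight-fasted male ddy mice (20-25 g) received compound orally as a suspension in 0.25% carboxymethylcellulose, observed 7 days. Lethal dose (mg/kg) taken from deaths per mice tested; LD50 given where marked.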

[2] = test system: ddy strain of male mice; assay: Analgesic activity, acetic acid-induced stretching method; format: in vivo, mouse (ddy); conditions: Mus musculus; for ED50: oral, Δ mark, range in parentheses
How it was run: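 Fasted male mice (20-25 g) received test compound orally, usually 100 mg/kg, as a 0.25% carboxymethylcellulose suspension, then 0.2 ml 0.7% acetic acid i.p. 1 hour later. Stretching was scored and activity given as % inhibition; some values are ED50 (mg/kg).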

[3] = test system: ddy strain of male mice; assay: Analgesic activity, Haffner method (morphine threshold dose, clamp); format: in vivo, mouse (ddy); conditions: Mus musculus; for ED50: oral, Δ mark, range in parentheses; for inhibition in vivo at 100 mg/kg: 100 mg/kg oral, 45 minutes before morphine hydrochloride
How it was run: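 Fasted male ddy mice weighing 20-25 g were given the test compound orally as a suspension in 0.25% carboxymethylcellulose. After 45 minutes, a threshold dose (1.5-2.5 mg/kg body weight) of morphine hydrochloride was injected subcutaneously, and clamp-induced pain reactions were watched for 1 hour. Analgesic activity was expressed as inhibitory ratio (%) or as ED50.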

[4] = test system: Wistar strain of male rats; assay: Anti-pyretic activity (dry-yeast-induced fever); format: in vivo, rat (Wistar); conditions: oral (dose not given), up to 4 hours after administration
How it was run: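 Male Wistar rats (150–180 g), fasted overnight, given 10% dry-yeast suspension subcutaneously (1 ml/100 g). Compound dosed orally as 0.25% CMC suspension 5 h later; body temperature followed, febrile index integrated to 4 h post-dose and expressed as % inhibition.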

[5] = test system: Wistar strain of male rats; assay: Anti-inflammatory activity (acute carrageenin-induced inflammatory test, hindpaw); format: in vivo, rat (Wistar); conditions: Rattus norvegicus, read-out: Anti-inflammatory activity, inflammation inhibitory ratio
Procedure: Next, several tests for determining the pharmacological properties, in that acute toxicity, anti-pyretic activity, analgesic activity and anti-inflammatory activity of the present 1,1,3,5-substituted biuret compounds of the formula (1) were conducted and the test results are shown in Table (2). In the tests, each compounds to be tested was used as a suspension in 0.25% carboxymethylcellulose solution. Methods for testing are explained as follows:
According to the method of acute carrageenin-induced inflammatory test [Folia Pharmacologia Japonica, Vol. 56, pp. 575 (1960)], the Wistar strain of male rats (body weight, 150-180 g) were used as test animals. The rats were fasted overnight, 100 mg/kg body weight of the test compound was administered orally, then 1 hour after the administration, 0.1 ml of 1% carrageenin solution, as the inflammation inducing agent, was injected subcutaneously to the hindpaw of the rat and the volume of the hindpaw was measured at time sequences, Anti-inflammatory activity of the test compound was calculated as inflammation inhibitory ratio (%) at 3 hours after the injection of inflammation inducing agent.

[6] = test system: ddy strain of male mice; assay: Acute toxicity (oral, mice, 7 days observation); format: in vivo
How it was run: as §1

[7] = oral, male ddy mice, 7 days observation, Δ mark, read-out: 50% lethal dose, LD50
[8] = 100 mg/kg oral, 3 hours after carrageenin
[9] = po, read-out: Analgesic activity, acetic acid-induced stretching method, inhibitory ratio
[10] = read-out: Analgesic activity, Haffner method, inhibitory ratio

| SMILES | LD50 at 168 h [1, 7] [mg/kg] | Anti-pyretic activity, inhibitory ratio (febril index) [4] [%] | inhibition in vivo at 100 mg/kg ([5]; po, 3 h) [%] | inhibition in vivo at 100 mg/kg [5, 8] [%] | inhibition in vivo at 100 mg/kg [2, 9] [%] | inhibition in vivo at 100 mg/kg [3, 10] [%] | other results |
| --- | --- | --- | --- | --- | --- | --- | --- |
| CNC(=O)NC(=O)N(C)c1ccccc1 [Compound No. 49, 1,5-dimethyl-1-phenylbiuret] | 1600 | 84 | 32 | – | – | – | ED50 [2]: 34 mg/kg; ED50 [3]: 86 mg/kg |
| CNC(=O)N(C)C(=O)N(C)c1ccccc1 [Compound No. 53, 1,3,5-Trimethyl-1-phenylbiuret] | 1350 | 108 | – | 76 | – | – | ED50 [2]: 68 mg/kg; ED50 [3]: 135 mg/kg |
| CCN(C(=O)N(C)C(=O)NC)c1ccccc1 [Compound No. 58, 1-ethyl-3,5-dimethyl-1-phenylbiuret] | 1000 | 137 | 60 | – | 75 | 62.5 | – |
| CCN(C(=O)N(C)C(=O)NC)c1ccc(OC)cc1 [Compound No. 61, 1-Ethyl-1-(4-methoxyphenyl)-3,5-dimethylbiuret] | 1250 | 35 | – | 52 | 75 | 25 | – |
| CNC(=O)N(C(=O)N(C)C)c1ccccc1 [compound 39, 1,1,5-Trimethyl-3-phenylbiuret] | 93 | – | – | – | – | – | inhibition in vivo at 50 mg/kg [2, 9]: 25%; inhibition in vivo at 50 mg/kg ([3]; 50 mg/kg oral, read-out: Analgesic activity, Haffner method, inhibitory ratio): 25%; inhibition in vivo at 25 mg/kg ([5]; po, 3 h): 33% |
| CN(C)C(=O)N(C(=O)NC1CCCCC1)c1ccccc1 [compound 41, 1,1-Dimethyl-3-phenyl-5-cyclohexylbiuret] | 1280 | – | – | – | – | 62.5 | inhibition in vivo at 200 mg/kg [2, 9]: 50% |
| CCN(C)C(=O)NC(=O)NCc1ccccc1 [compound 44, 1-Methyl-1-ethyl-5-benzylbiuret] | 1400 | – | 47 | – | – | – | inhibition in vivo at 200 mg/kg ([2]; 200 mg/kg oral, read-out: Analgesic activity, acetic acid-induced stretching method, inhibitory ratio): 87.5% |
| CCNC(=O)NC(=O)N(C)c1ccccc1 [compound 50, 1-Methyl-1-phenyl-5-ethylbiuret] | 1960 | 90 | – | 38 | 50 | 37.5 | – |
| CCNC(=O)N(C)C(=O)N(C)c1ccccc1 [compound 54, 1,3-Dimethyl-1-phenyl-5-ethylbiuret] | 1350 | 58 | – | 54 | 37.5 | 75 | – |
| CC(C)NC(=O)N(C)C(=O)N(C)c1ccccc1 [compound 56, 1,3-Dimethyl-1-phenyl-5-isopropylbiuret] | 1320 | 65 | 47 | – | 25 | 12.5 | – |
| CCN(C(=O)N(C)C(=O)NC)c1ccccc1Cl [compound 59, 1-Ethyl-1-(2-chlorophenyl)-3,5-dimethylbiuret] | 810 | 64 | – | – | 37.5 | 12.5 | inhibition in vivo at 100 mg/kg ([5]; po, 2 h): 51% |
| CCN(C(=O)N(C)C(=O)NC)c1ccc(Cl)cc1 [compound 60, 1-Ethyl-1-(4-chlorophenyl)-3,5-dimethylbiuret] | – | 88 | 33 | – | 75 | 50 | Acute toxicity: death number of mice/number of mice tested ([6]; 1000 mg/kg oral): 1/4; Acute toxicity: death number of mice/number of mice tested ([6]; 2000 mg/kg oral): 3/4 |
| CCN(C(=O)N(C)C(=O)NC)c1ccc(C)cc1 [compound 62] | – | 18 | – | – | 62.5 | 37.5 | LD50 at 168 h ([1]; po): 1480 mg/kg |
| CCCN(C(=O)N(C)C(=O)NC)c1ccccc1 [compound 63, 1-n-Propyl-1-phenyl-3,5-dimethylbiuret] | – | 76 | – | 58 | 50 | 50 | Acute toxicity: death number of mice/number of mice tested ([6]; 1000 mg/kg oral): 3/4; Acute toxicity: death number of mice/number of mice tested ([6]; 2000 mg/kg oral): 4/4 |
| CCCCN(C(=O)N(C)C(=O)NC)c1ccccc1 [compound 64, 1-n-Butyl-1-phenyl-3,5-dimethylbiuret] | – | 50 | 43 | – | 25 | 37.5 | Acute toxicity: death number of mice/number of mice tested ([6]; 500 mg/kg oral): 1/4; Acute toxicity: death number of mice/number of mice tested ([6]; 1000 mg/kg oral): 2/4 |
| CN(C(=O)Nc1ccccc1)C(=O)N1CCCCC1 [compound 70, 1,1-Pentamethylene-3-methyl-5-phenylbiuret] | 515 | – | – | – | 62.5 | 37.5 | – |
